Measurements: PubChem BioAssay (NCI)
Where “and” joins values, the source holds several entries; their conditions need not be identical. Equal values may be shown once.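 Assay format: 96-well plates, 48-hour exposure. GI50 = concentration required for 50% inhibition of growth. The concentration for full growth arrest is given as TGI.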

Experiments:
Experiment in all cases: NCI tumour cell line growth inhibition, 48 h
NCI/ADR-RES ovarian = system: NCI/ADR-RES ovarian
OVCAR-5 ovarian = system: OVCAR-5 ovarian
786-0 renal = system: 786-0 renal
MCF7 breast = system: MCF7 breast
HOP-92 NSCLC = system: HOP-92 NSCLC
UACC-62 melanoma = system: UACC-62 melanoma
M19-MEL melanoma = system: M19-MEL melanoma
UACC-257 melanoma = system: UACC-257 melanoma
IGROV1 ovarian = system: IGROV1 ovarian
DMS 273 small cell lung = system: DMS 273 small cell lung
SR leukemia = system: SR leukemia
SF-268 CNS = system: SF-268 CNS
U251 CNS = system: U251 CNS
CCRF-CEM leukemia = system: CCRF-CEM leukemia
COLO 205 colon = system: COLO 205 colon
MALME-3M melanoma = system: MALME-3M melanoma
HOP-18 NSCLC = system: HOP-18 NSCLC
XF 498 CNS = system: XF 498 CNS
RPMI-8226 leukemia = system: RPMI-8226 leukemia
DMS 114 small cell lung = system: DMS 114 small cell lung
NCI-H226 lung = system: NCI-H226 lung
LXFL 529 NSCLC = system: LXFL 529 NSCLC
NCI-H522 lung = system: NCI-H522 lung
TK-10 renal = system: TK-10 renal
SNB-75 CNS = system: SNB-75 CNS
PC-3 prostate = system: PC-3 prostate
ACHN renal = system: ACHN renal
SF-539 CNS = system: SF-539 CNS
UO-31 renal = system: UO-31 renal
SK-MEL-5 melanoma = system: SK-MEL-5 melanoma
OVCAR-4 ovarian = system: OVCAR-4 ovarian
SN12C renal = system: SN12C renal
HS 578T breast = system: HS 578T breast
SNB-78 CNS = system: SNB-78 CNS
NCI-H23 lung = system: NCI-H23 lung
DLD-1 colon = system: DLD-1 colon
M14 melanoma = system: M14 melanoma
RXF 393 renal = system: RXF 393 renal
RXF-631 renal = system: RXF-631 renal
BT-549 breast = system: BT-549 breast
KM20L2 colon = system: KM20L2 colon
OVCAR-3 ovarian = system: OVCAR-3 ovarian
HOP-62 NSCLC = system: HOP-62 NSCLC
EKVX NSCLC = system: EKVX NSCLC
LOX IMVI melanoma = system: LOX IMVI melanoma
MDA-MB-231 breast = system: MDA-MB-231 breast
SF-295 CNS = system: SF-295 CNS
OVCAR-8 ovarian = system: OVCAR-8 ovarian
T-47D breast = system: T-47D breast
HCC-2998 colon = system: HCC-2998 colon
HT29 colon = system: HT29 colon
KM12 colon = system: KM12 colon
CAKI-1 renal = system: CAKI-1 renal
MDA-MB-435 = system: MDA-MB-435
HCT-15 colon = system: HCT-15 colon
SK-MEL-28 melanoma = system: SK-MEL-28 melanoma
DU-145 prostate = system: DU-145 prostate
MDA-N = system: MDA-N
HCT-116 colon = system: HCT-116 colon

Structure (SMILES): Nc1ccc2cc3ccc(N)cc3nc2c1
- GI50 (NCI/ADR-RES ovarian): 1210 nM
- TGI (NCI/ADR-RES ovarian): 5.25 µM and 5.26 µM and 11.2 µM
- GI50 (OVCAR-5 ovarian): 1970 nM
- TGI (OVCAR-5 ovarian): 4.98 µM and 30.1 µM and 28.6 µM
- GI50 (786-0 renal): 1.97 µM [middle of 4 runs]
- TGI (786-0 renal): 11.8 µM [middle of 4 runs]
- GI50 (MCF7 breast): 520 nM
- TGI (MCF7 breast): 7.19 µM and 22.6 µM and 14.5 µM
- TGI (HOP-92 NSCLC): 6.14 µM and 6.32 µM and 7.11 µM
- TGI (UACC-62 melanoma): 3.73 µM [middle of 4 runs]
- TGI (M19-MEL melanoma): 4.07 µM
- GI50 (UACC-257 melanoma): 994 nM
- TGI (UACC-257 melanoma): 5.03 µM [middle of 4 runs]
- GI50 (IGROV1 ovarian): 2.07 µM [middle of 4 runs]
- TGI (IGROV1 ovarian): 7.69 µM [middle of 4 runs]
- TGI (DMS 273 small cell lung): 3.33 µM
- TGI (SR leukemia): 14.1 µM and 2.1 µM and 6.96 µM
- GI50 (SF-268 CNS): 1120 nM
- TGI (SF-268 CNS): 10.2 µM [middle of 4 runs]
- TGI (U251 CNS): 11.4 µM and 10.4 µM and 9.94 µM
- GI50 (CCRF-CEM leukemia): 1920 nM
- GI50 (COLO 205 colon): 936 nM
- GI50 (MALME-3M melanoma): 1.16 µM [middle of 4 runs]
- TGI (MALME-3M melanoma): 3.21 µM [middle of 4 runs]
- TGI (HOP-18 NSCLC): 8.41 µM
- TGI (XF 498 CNS): 5.8 µM
- TGI (RPMI-8226 leukemia): 4.77 µM and 5.01 µM and 6.42 µM
- TGI (DMS 114 small cell lung): 3.03 µM
- TGI (NCI-H226 lung): 4.3 µM [middle of 4 runs]
- TGI (LXFL 529 NSCLC): 10.3 µM
- GI50 (NCI-H522 lung): 295 nM and 542 nM and 824 nM
- TGI (NCI-H522 lung): 1310 nM and 2820 nM and 2870 nM
- GI50 (TK-10 renal): 513 nM
- TGI (SNB-75 CNS): 3.25 µM [middle of 4 runs]
- GI50 (PC-3 prostate): 857 nM and 1960 nM and 1500 nM
- TGI (PC-3 prostate): 4.88 µM and 24.7 µM
- GI50 (ACHN renal): 609 nM
- GI50 (SF-539 CNS): 1560 nM
- TGI (SF-539 CNS): 4.54 µM [middle of 4 runs]
- GI50 (UO-31 renal): 412 nM
- TGI (UO-31 renal): 5.13 µM [middle of 4 runs]
- TGI (SK-MEL-5 melanoma): 2740 nM and 4330 nM and 2930 nM
- GI50 (OVCAR-4 ovarian): 1.21 µM [middle of 4 runs]
- TGI (OVCAR-4 ovarian): 4.23 µM [middle of 4 runs]
- GI50 (SN12C renal): 1180 nM
- TGI (HS 578T breast): 6.59 µM and 7.97 µM and 9.65 µM
- TGI (SNB-78 CNS): 9.23 µM
- GI50 (NCI-H23 lung): 1.58 µM [middle of 4 runs]
- TGI (DLD-1 colon): 10.5 µM
- GI50 (M14 melanoma): 1.77 µM [middle of 4 runs]
- GI50 (RXF 393 renal): 2030 nM and 1360 nM and 565 nM
- TGI (RXF 393 renal): 5.83 µM and 3.15 µM and 1.97 µM
- TGI (RXF-631 renal): 4.41 µM
- GI50 (BT-549 breast): 1910 nM
- TGI (BT-549 breast): 10.4 µM and 16.2 µM and 12 µM
- TGI (KM20L2 colon): 6.61 µM
- GI50 (OVCAR-3 ovarian): 1700 nM
- GI50 (HOP-62 NSCLC): 795 nM
- GI50 (EKVX NSCLC): 640 nM
- TGI (EKVX NSCLC): 10.6 µM and 6.53 µM and 7.66 µM
- TGI (LOX IMVI melanoma): 7.71 µM and 3.58 µM and 3.09 µM
- TGI (MDA-MB-231 breast): 7.94 µM and 5.03 µM and 8.4 µM
- GI50 (SF-295 CNS): 1470 nM
- TGI (SF-295 CNS): 7.12 µM [middle of 4 runs]
- GI50 (OVCAR-8 ovarian): 599 nM
- TGI (T-47D breast): 14.9 µM and 9.61 µM and 8.53 µM
- TGI (HCC-2998 colon): 4870 nM and 2560 nM and 2470 nM
- TGI (HT29 colon): 9.02 µM [middle of 4 runs]
- GI50 (KM12 colon): 631 nM [middle of 4 runs]
- TGI (KM12 colon): 6.73 µM [middle of 4 runs]
- GI50 (CAKI-1 renal): 723 nM
- TGI (MDA-MB-435): 4.37 µM and 4.04 µM
- GI50 (HCT-15 colon): 1.95 µM [middle of 4 runs]
- TGI (SK-MEL-28 melanoma): 5.11 µM [middle of 4 runs]
- GI50 (DU-145 prostate): 1450 nM
- TGI (DU-145 prostate): 18.1 µM and 10 µM and 9.47 µM
- TGI (MDA-N): 3.79 µM and 2.77 µM
- TGI (HCT-116 colon): 10.8 µM [middle of 4 runs]
